# Patent publication US11357752B2, “Carolacton and derivatives thereof for use in the treatment of cell proliferation disorders” (Helmholtz-Zentrum für Infektionsforschung GmbH, priority 2017, dated 2022)
# Read-outs that look alike come from different tables or passages of the source.
# How the values were obtained:
# HUVEC cells = test: CellTiter-Glo luminescent cell viability assay; assay type: cell-based, human; conditions: for IC50: Homo sapiens, HUVEC
# Protocol: (§1) To evaluate the effects of one compound on 7 cell lines with a CellTiter-Glo Luminescent Cell Viability Assay. Cells were treated with compounds for 72 hours at 37° C./5% CO2 incubator. Compound stock concentration was 20 mM, concentrations to be assayed 100\50\15\10.5\0.1\0.05\0.01\0.005 pM. • i) Materials and Reagents
# (§2) a) Cells in log-phase are collected and counted. Cell suspensions are added to each well of 384-w plate at a suitable density. The margin wells are filled with PBS.
# (§3) b) Test compound at various concentrations are added in duplicates
# (§4) c) The cells were incubated for 72 h in 370/5% CO 2 incubator.
# (§5) d) After incubation, CellTiter-Glo® Reagent is added to each test well and shack for 2 minutes on an orbital shaker.
# (§6) e) The plates are shortly centrifuged at 90×g for 30 s and incubated at room temperature for additional 10 minutes to stabilize the luminescent signal.
# (§7) f) Luminescence signals are detected on PHERAstar Plus.
# (§8) g) Data is collected in Microsoft excel forms and analyzed with GraphPad Prism v.6 software. • iii) Data analysis
# (§9) The potential effect of the testing compounds an cell proliferation was calculated by the formula below: Inhibition %=[…]
# (§10) Since hsMTHFD2 is expressed in human mitochondria and overexpressed in many tumor cells we next aimed to evaluate its potential as an anticancer compound. To this end IC50 values for carolacton were determined for six different cancer cell lines as well as HUVEC cells as primary non-tumor cells. The CellTiter-Glo luminescent cell viability assay (Promega) was used on triplicate cultures grown for three days. Each cell line was tested in three independent experiments (performed at different times and by different experimentators): First, using natural carolacton purified from culture supernatants of Sorangium cellulosum and solved in methanol; second, using carolacton synthesized de novo according to Schmidt et al. 2012 and solved in DMSO; and third, using synthetic carolacton synthesized de novo according to Schmidt et al. 2012 and solved in methanol.
# NK-92 cells = test: CellTiter-Glo luminescent cell viability assay; assay type: cell-based, human; conditions: for IC50: Homo sapiens
# Protocol: as §1, §2, §3, §4, §5, §6, §7, §8, §9, §10
# [1] = HUVEC (primary), natural C, methanol
# [2] = HUVEC (primary), synthetic C, DMSO
# [3] = HUVEC (primary), synthetic C, methanol
smiles,measurement,setting,value
"CO[C@H](CC(=O)O)[C@@H](C)C(=O)[C@H](C)/C=C(\C)[C@H]1OC(=O)[C@H](O)[C@H](O)/C=C/[C@H](C)CCC[C@@H]1C [Carolacton, carolacton]",Bottom,HUVEC cells; [1],−4.548
same,Top,HUVEC cells; [1],=100.0
same,Bottom,HUVEC cells; [2],−7.188
same,Top,HUVEC cells; [2],=100.0
same,Bottom,HUVEC cells; [3],−3.312
same,Top,HUVEC cells; [3],=100.0
same,IC50,"HUVEC cells; 72 h, HUVEC (primary), natural C, methanol, 72 h, read-out: IC50 inhibition of cell proliferation",48.3 µM
same,IC50,"HUVEC cells; 72 h, HUVEC (primary), synthetic C, DMSO, 72 h, read-out: IC50 inhibition of cell proliferation",103 µM
same,IC50,"HUVEC cells; HUVEC cells, read-out: IC50",46.4 µM
same,IC50,"NK-92 cells; NK92, 72 h, NK-92, natural C, methanol, 72 h, read-out: IC50 inhibition of cancer cell proliferation",0.0399 µM
same,IC50,"NK-92 cells; NK92, 72 h, NK-92, synthetic C, DMSO, 72 h, read-out: IC50 inhibition of cancer cell proliferation",> 100 µM
same,IC50,"NK-92 cells; NK92, 72 h, read-out: IC50 inhibition of cancer cell proliferation, NK-92, synthetic C, methanal, 72 h",0.0367 µM
same,IC50,"NK-92 cells; NK92, malignant NK-92 cells, read-out: IC50 inhibition of proliferation",0.037 to 0.039 µM
same,Bottom,"NK-92 cells; NK-92, natural C, methanol",−9.96
same,Top,"NK-92 cells; NK-92, natural C, methanol",91.08
same,Bottom,"NK-92 cells; NK-92, synthetic C, methanal",1.208
same,Top,"NK-92 cells; NK-92, synthetic C, methanal",91.05
